ChEMBL document CHEMBL1157703, “Synthesis, pharmacological studies and molecular modeling of some tetracyclic 1,3-diazepinium chlorides” (Bioorg Med Chem, 2010)
Calls of active or inactive are those of the source.

Legend:
[1] = target: Sodium-dependent noradrenaline transporter (Homo sapiens) (UniProt P23975); test: Inhibition of NET PDSP analysis
[2] = species on record: Mus musculus; test: Effect on behavioral activity in Albino mouse assessed as inhibition of diazepam-induced paralysis at 0.2 ml/10 g by hippocratic screen; type: functional, organism-based
[3] = species on record: Mus musculus; test: Effect on behavioral activity in Albino mouse assessed as inhibition of diazepam-induced loss of righting reflex at 0.2 ml/10 g after 2 hrs by hippocratic screen; type: functional, organism-based
[4] = species on record: Mus musculus; test: Effect on behavioral activity in Albino mouse assessed as inhibition of diazepam-induced decrease in respiratory rate at 0.2 ml/10 g by hippocratic screen; type: functional, organism-based
[5] = species on record: Mus musculus; test: CNS toxicity in Albino mouse assessed as loss of analgesic activity at 0.2 ml/10 g by hippocratic screen; type: organism-based; conditions: in vivo
[6] = system: Mus musculus; test: CNS toxicity in Albino mouse assessed as anesthetic response at 0.2 ml/10 g by hippocratic screen; type: organism-based; conditions: in vivo
[7] = species on record: Mus musculus; test: CNS toxicity in Albino mouse assessed as paralysis at 0.2 ml/10 g by hippocratic screen; type: organism-based; conditions: in vivo
[8] = species on record: Mus musculus; test: CNS toxicity in Albino mouse assessed as change in respiratory rate at 0.2 ml/10 g by hippocratic screen; type: organism-based; conditions: in vivo
[9] = species on record: Mus musculus; test: Effect on behavioral activity in Albino mouse assessed as inhibition of diazepam-induced tremors at 0.2 ml/10 g by hippocratic screen; type: functional, organism-based
[10] = species on record: Mus musculus; test: Effect on behavioral activity in Albino mouse assessed as inhibition of diazepam-induced loss of analgesia at 0.2 ml/10 g by hippocratic screen; type: functional, organism-based
[11] = species on record: Mus musculus; test: Effect on behavioral activity in Albino mouse assessed as inhibition of diazepam-induced decrease in motor activity at 0.2 ml/10 g for 2 hrs by hippocratic screen; type: functional, organism-based
[12] = species on record: Mus musculus; test: Effect on behavioral activity in Albino mouse assessed as inhibition of diazepam-induced anesthesia at 0.2 ml/10 g by hippocratic screen; type: functional, organism-based
[13] = species on record: Mus musculus; test: CNS toxicity in Albino mouse assessed as loss of righting reflex at 0.2 ml/10 g by hippocratic screen; type: organism-based; conditions: in vivo
[14] = species on record: Mus musculus; test: Effect on behavioral activity in Albino mouse assessed as inhibition of diazepam-induced pinnal reflex at 0.2 ml/10 g by hippocratic screen; type: functional, organism-based
[15] = species on record: Mus musculus; test: CNS toxicity in Albino mouse assessed as pinnal reflex at 0.2 ml/10 g by hippocratic screen; type: organism-based; conditions: in vivo
[16] = species on record: Mus musculus; test: Effect on behavioral activity in Albino mouse assessed as inhibition of diazepam-induced ataxia at 0.2 ml/10 g for 15 mins by hippocratic screen; type: functional, organism-based
[17] = species on record: Mus musculus; test: CNS toxicity in Albino mouse assessed as startle reaction at 0.2 ml/10 g by hippocratic screen; type: organism-based; conditions: in vivo
[18] = species on record: Mus musculus; test: Effect on behavioral activity in Albino mouse assessed as inhibition of diazepam-induced startle reaction at 0.2 ml/10 g by hippocratic screen; type: functional, organism-based
[19] = species on record: Mus musculus; test: CNS toxicity in Albino mouse assessed as loss of screen grip at 0.2 ml/10 g by hippocratic screen; type: organism-based; conditions: in vivo
[20] = species on record: Mus musculus; test: Effect on behavioral activity in Albino mouse assessed as inhibition of diazepam-induced loss of screen grip at 0.2 ml/10 g by hippocratic screen; type: functional, organism-based
[21] = species on record: Mus musculus; test: CNS toxicity in Albino mouse assessed as decrease in motor activity at 0.2 ml/10 g by hippocratic screen; type: organism-based; conditions: in vivo
[22] = species on record: Mus musculus; test: CNS toxicity in Albino mouse assessed as ataxia at 0.2 ml/10 g by hippocratic screen; type: organism-based; conditions: in vivo
[23] = species on record: Mus musculus; test: CNS toxicity in Albino mouse assessed as tremors at 0.2 ml/10 g by hippocratic screen; type: organism-based; conditions: in vivo
[24] = target: Sodium-dependent dopamine transporter (Homo sapiens) (UniProt Q01959)
Chain of Sodium-dependent dopamine transporter (Homo sapiens) (Q01959 whole entry): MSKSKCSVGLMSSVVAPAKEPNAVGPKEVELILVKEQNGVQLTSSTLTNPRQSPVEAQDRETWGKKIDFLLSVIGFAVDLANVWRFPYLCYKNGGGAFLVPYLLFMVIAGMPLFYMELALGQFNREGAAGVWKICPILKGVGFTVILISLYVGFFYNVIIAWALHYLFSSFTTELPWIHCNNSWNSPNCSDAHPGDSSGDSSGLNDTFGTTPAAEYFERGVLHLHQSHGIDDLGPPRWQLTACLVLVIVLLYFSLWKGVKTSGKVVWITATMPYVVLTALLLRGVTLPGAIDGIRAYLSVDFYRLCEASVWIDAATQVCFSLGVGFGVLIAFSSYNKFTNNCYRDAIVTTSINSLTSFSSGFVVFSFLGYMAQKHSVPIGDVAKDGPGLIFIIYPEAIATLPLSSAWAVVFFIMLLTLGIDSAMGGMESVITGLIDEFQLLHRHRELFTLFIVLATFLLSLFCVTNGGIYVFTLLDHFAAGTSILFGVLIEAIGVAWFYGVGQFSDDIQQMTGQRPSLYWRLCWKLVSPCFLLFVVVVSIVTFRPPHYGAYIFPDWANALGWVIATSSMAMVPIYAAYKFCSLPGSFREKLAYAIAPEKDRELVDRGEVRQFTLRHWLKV
Description: Inhibition of DAT PDSP analysis

Chain of Sodium-dependent noradrenaline transporter (Homo sapiens) (P23975 whole entry): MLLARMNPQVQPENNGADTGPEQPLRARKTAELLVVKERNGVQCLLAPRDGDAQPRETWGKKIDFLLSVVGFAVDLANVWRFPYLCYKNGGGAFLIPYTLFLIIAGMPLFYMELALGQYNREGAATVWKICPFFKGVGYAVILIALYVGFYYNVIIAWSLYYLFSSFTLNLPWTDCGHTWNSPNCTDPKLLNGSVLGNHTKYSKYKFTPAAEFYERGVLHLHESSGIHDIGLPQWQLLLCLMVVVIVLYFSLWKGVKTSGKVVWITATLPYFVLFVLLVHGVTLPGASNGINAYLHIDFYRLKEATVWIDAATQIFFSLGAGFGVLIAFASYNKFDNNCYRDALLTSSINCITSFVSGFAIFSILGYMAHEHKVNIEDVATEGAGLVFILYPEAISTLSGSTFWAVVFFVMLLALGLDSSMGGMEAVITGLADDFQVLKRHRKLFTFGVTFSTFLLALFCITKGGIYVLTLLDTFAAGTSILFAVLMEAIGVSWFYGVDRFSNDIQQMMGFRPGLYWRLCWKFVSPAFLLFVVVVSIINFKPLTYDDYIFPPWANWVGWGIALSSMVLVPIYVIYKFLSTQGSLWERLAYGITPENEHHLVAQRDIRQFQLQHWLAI

NC[C@H](O)c1ccc(O)c(O)c1
> 10 µM: Ki [1]

COc1ccc2c3c(oc2c1)C(=O)Nc1cccc(C)[n+]1C3.[Cl-]
Non-toxic: Activity [5] | Activity [6] | Activity [7] | Activity [8] | Activity [13] | Activity [15] | Activity [17] | Activity [19] | Activity [21] | Activity [22] | Activity [23]
active: Activity [11] | Activity [16]
inactive: Activity [2] | Activity [3] | Activity [4] | Activity [9] | Activity [10] | Activity [12] | Activity [14] | Activity [18] | Activity [20]

NCCc1ccc(O)c(O)c1
> 10 µM: Ki [24]
